Tests used:
Type in all cases: physicochemical
[1] = Forced degradation study of indacaterol (RP-HPLC impurities); conditions: for Total Impurities (%): includes 2% process-related impurity
Protocol: A degraded sample panel was prepared to identify indacaterol degradation pathways and products. Stress conditions are outlined in Table 1.
One of 6N HCl, 6N NaOH, or 30% H2O2 (aqueous) were added to a suitable volume of 100 μg/mL indacaterol and diluted with water:methanol (50:50, v:v) to achieve a final indacaterol concentration of 10 μg/mL. Samples were stored at ambient temperature. At specified time points, acidic and basic hydrolysis (1 N HCl and 1 N NaOH, respectively) samples were neutralized (H2O2 samples were not quenched) and reversed-phase high performance liquid chromatography (RP-HPLC) was used to quantitate indacaterol impurities. All samples were diluted to 5 μg/mL prior to RP-HPLC analysis. Method parameters are outlined in Table 2.
Total impurities (process-related and product-related) of the indacaterol forced degradation study samples are presented in Table 3. Forced degradation impurity peaks were identified based on their retention time relative (RRT) to the indacaterol peak. Impurity peaks already present in the indacaterol (control group at T0; total peak area approximately 2%) were considered process-related, while additional peaks formed after the degradation were considered product-related.

[2] = Aqueous solubility of indacaterol and indacaterol maleate in water (orbital shaker, UV-Vis); conditions: water at pH 7.1
Protocol: Solubility studies of indacaterol and indacaterol maleate were performed using an orbital shaker method. Excess indacaterol was placed in a glass vial with water. The initial pH of the water was 7.1. Samples were shaken for 12 hours to ensure equilibrium was reached. After the 12 hour period, the vial was removed from the shaker and allowed to settle for 30 minutes. Then, the sample was filtered using a 0.2 μM polyvinylidene fluoride (PVDF) syringe filter; the initial 0.5 mL of filtrate was discarded. The pH was then measured and the concentration of the indacaterol was evaluated by UV-Vis.

[3] = Aqueous solubility of indacaterol with varying pH in citrate buffer; conditions: aqueous citrate buffer 5 mM
Protocol: Solubility studies of indacaterol in solutions of varying pH were performed using an orbital shaker method. Excess indacaterol was placed in a glass vial with an aqueous citrate buffer (5 mM; prepared from citric acid and NaOH). Samples were shaken for 12 to 24 hours to ensure equilibrium was reached before checking and adjusting the pH (using 1 M HCl and NaOH) and placing samples back into the orbital shaker for an additional 12 hours. This process was repeated up to two times or until the desired pH was obtained. After the desired pH was reached, the vial was removed from the shaker and allowed to settle for 30 minutes. Then, the sample was filtered using a 0.2 μM PVDF syringe filter; the initial 0.5 mL of filtrate was discarded. The pH was then measured and the concentration of the indacaterol was evaluated by UV-Vis.

Total Impurities (%) ([1]; Acidic Hydrolysis (1M HCl), 15 h, ambient temperature): 7.25%
Total Impurities (%) ([1]; Acidic Hydrolysis (1M HCl), T0): 4.01%
Total Impurities (%) ([1]; Basic Hydrolysis (1M NaOH), 15 h, ambient temperature): 7.69%
Total Impurities (%) ([1]; Basic Hydrolysis (1M NaOH), T0): 3.99%
Total Impurities (%) ([1]; Control, T0): 1.81%
Total Impurities (%) ([1]; Control, T0, listed as indacaterol): approximately 2%
degradation of indacaterol samples in aqueous solutions over time ([1]; FIG. 1, forced degradation experiment): minimal degradation
Total Impurities (%) ([1]; Oxidation (1.2% H2O2), 7 h): 2.77%
Total Impurities (%) ([1]; Oxidation (1.2% H2O2), 29 h): 8.83%
Total Impurities (%) ([1]; Oxidation (1.2% H2O2), 29 h, listed as indacaterol): approximately 9%
solubility in water [2]: insoluble
Solubility of indacaterol versus pH [3]: increase with decreasing pH
SMILES: CCc1cc2c(cc1CC)CC(NC[C@H](O)c1ccc(O)c3[nH]c(=O)ccc13)C2 [Indacaterol, (R)-5-[2-(5,6-Diethylindan-2-ylamino)-1-hydroxyethyl]-8hydroxy-1H-quinolin-2-one]

— patent US11844793B2, “Liquid formulations of indacaterol” (AeroRx Therapeutics LLC, priority 2020, dated 2023)
